According to ChEMBL document CHEMBL1157539, “Thousands of chemical starting points for antimalarial lead identification” (Nature, 2010):
Where a name gives a salt, the structure may show the parent alone.

System: Plasmodium falciparum
Experiment: GSK_TCMDC: Inhibition of Plasmodium falciparum 3D7 in whole erythrocytes, using parasite LDH activity as an index of growth.
Format: functional, organism-based

| SMILES | XC50 (Plasmodium falciparum, 3D7) [nM] | XC50 [nM] |
| --- | --- | --- |
| CN1CCC(C(=O)N(Cc2ccc(-c3ccc(CNCCc4ccccc4)cn3)cc2)Cc2cccc(F)c2)CC1 | 935 |  |
| Cc1cc(Nc2ccc(O)cc2)nc2cc(O)ccc12 | 756 |  |
| O=S(=O)(Nc1cccc(CCN2CCC(N3CCCCC3)CC2)c1)c1ccc2c(c1)OCCO2 | 1230 |  |
| Cc1ccc(O)cc1C[C@@H]1C(=O)CC[C@@]2(C)[C@H]1CC[C@]2(C)O | 957 |  |
| Cc1nc(C)c(-c2ccc(Cl)cc2Cl)c(O)c1Br | 1010 |  |
| CCOC(=O)c1ccc(CC(C)NCC(O)c2cccc(C(F)(F)F)c2)cc1 (centres undefined) | 216 |  |
| Cc1cc(-c2cccc(CNCc3ccc(F)cc3)c2)ccc1S(=O)(=O)NCCN1CCCC1 | 732 |  |
| CN(c1ccc(C(=O)N[C@@H](CCC(=O)O)C(=O)O)cc1)S(=O)(=O)c1ccc2nc(N)[nH]c(=O)c2c1 | 149 |  |
| O=C(c1cc2c(s1)-c1cccc(Cl)c1SC2)N1CCN(c2ccncc2)CC1 | 1010 |  |
| CN1CCN(c2cc3c(cc2Br)CCN3C(=O)Nc2ccc(-c3cnc4ccccc4c3)cc2)CC1 | 576 |  |
| COc1cccc(-c2ccc3c(-c4ccc(F)cc4)cnc(N)c3c2)c1 | 807 |  |
| COc1ccccc1N1CCN(C(C(=O)NCc2ccc3c(c2)OCO3)c2ccc3c(c2)OCCCO3)CC1 (centres undefined) | 1120 |  |
| Cc1ccc(O)cc1Nc1ccnc2cc(-c3ccccn3)ccc12 [GW440139A] | 761 |  |
| O=C(Nc1cc(C(F)(F)F)cc(C(F)(F)F)c1)N1CCC(CCN2CCC(c3c[nH]c4ccccc34)CC2)CC1 | 1260 |  |
| CN(C)CCCOc1c(C(C)(C)C)cc(-c2cc(C(C)(C)C)c(OCCCN(C)C)c(C(C)(C)C)c2)cc1C(C)(C)C | 270 |  |
| COc1cc(C(=O)NC2CCN(Cc3ccccc3)CC2)ccc1-c1nc2cc(Cl)c(C)cc2[nH]1 | 304 |  |
| CC(C)n1cc2c(ccc3nc(N)nc(N)c32)n1 | 36.9 |  |
| O=C(CC1CCCCC1)NCC(NCCCNc1cc(=O)c2ccccc2[nH]1)c1cc(Br)cc(Br)c1 (centres undefined) | 1050 |  |
| Cc1ccc(CC(C)NCC(O)c2cccc([N+](=O)[O-])c2)cc1 (centres undefined) | 761 |  |
| Cc1cccc2nc(-c3ccc(-c4cccc(NC(=O)C(C)CN(C)C)c4)cc3)[nH]c12 (centres undefined) | 652 |  |
| Cc1[nH]c(C)c(-c2ccc(CCc3ccc(C(F)(F)F)cc3)nc2)c(=O)c1Cl | 88.1 |  |
| CCCN1CCc2c(sc3nc(SCC(=O)Nc4ccc(C)cc4)n(-c4ccc(C)cc4)c(=O)c23)C1 | 869 |  |
| CC(=O)Oc1cc(C(=O)Nc2ccc(Cl)cc2)cc2ccccc12 | 856 |  |
| O=C(Nc1ccccc1)c1ccc(N2CCC(COc3cccc(C(F)(F)F)c3)CC2)nc1 | 298 |  |

| SMILES | XC50 (Plasmodium falciparum, 3D7) [nM] | XC50 [nM] |
| --- | --- | --- |
| O=C(/C=C/c1ccc(F)c(Br)c1)NCCCCCN1CCC(c2c[nH]c3ccccc23)CC1 | 864 |  |
| O=C(/C=C/c1ccc(Cl)cc1)NCCCCCN1CCN(C(=O)Nc2ccc(Cl)c(C(F)(F)F)c2)CC1 | 920 |  |
| Cc1csc2nc(-c3ccccn3)nc(Nc3ccc4ncsc4c3)c12 | 1110 |  |
| O=C(/C=C/c1ccc(Cl)c(Cl)c1)NCCCCCN1CCC(NC(=O)c2ccc([N+](=O)[O-])cc2)CC1 | 672 |  |
| CCNc1cc(C(=O)N[C@@H](Cc2ccccc2)[C@H](O)CNC(C)(C)Cc2ccccc2)cc(N2CCCC2=O)c1 | 262 |  |
| O=C1CCCN1CCCNCc1cccc(-c2ccc(-c3nc4ccccc4[nH]3)s2)c1 | 859 |  |
| CC(C)C[C@H](Nc1ccc(C#N)c2ccccc12)C(=O)N[C@@H]1CCCc2ccccc21 | 763 |  |
| COc1ccc(F)cc1-c1csc(N(c2ccc(F)cc2)C2CCNCC2)n1 | 1210 |  |
| Cc1ccc(C(=O)NC2CCN(CCNC(=O)Nc3cc(C)nc4ccccc34)CC2)cc1 | 490 |  |
| NC1=NC2(CCCCC2)N(OCCCCCCC2CCCCC2)C(N)=N1 | 356 |  |
| COc1cc(Cc2cnc(N)nc2N)cc(OCCCc2cc(OCc3ccccc3)no2)c1OC | 1870 |  |
| CC(C)(C)c1ccc(CNCCOc2ccc(Nc3nnc(-c4ccc(-c5ncc[nH]5)cc4)o3)c3ccccc23)cc1 | 135 |  |
| CCOc1cc(CNCCCCCCNCc2cc(OCC)c(OCC)c3ccccc23)c2ccccc2c1OCC | 284 |  |
| FC(F)(F)c1ccc(COc2cc(Cl)ccc2Cn2ccnc2)cc1 | 649 |  |
| Cc1ccc(NC(=O)c2cccc(N3CCN(c4ccncc4)CC3)c2)cc1F | 1300 |  |
| Cc1cc(N2Cc3ccccc3C2)nc(Nc2cccc(C#N)c2)n1 | 172 |  |
| O=[N+]([O-])c1cc(C(c2ccc(O)c([N+](=O)[O-])c2)C(Cl)(Cl)Cl)ccc1O | 734 |  |
| CN1CCN(CCCN(Cc2cccc(-c3ccc(CNC4CCCC4)cc3)c2)C(=O)/C=C/c2ccccc2)CC1 | 746 |  |
| CC(=O)Nc1ccc(OCCN(CC(F)(F)F)c2ccc(C#N)cc2C(F)(F)F)cc1 | 767 |  |
| CC(=O)Nc1ccc(OCCN(Cc2ccccc2OC(F)(F)F)c2ccc(C(F)(F)F)c(C#N)c2)c(Cl)c1 | 456 |  |
| O=C(CNC1CCCCC1)Nc1cccc(C(=O)Nc2cccc(C(F)(F)F)c2)c1 | 416 |  |
| CN1CCCC1CCCOC(=O)c1ccc(N)cc1 (centres undefined) | 916 |  |
| COc1ccc(CC(=O)NC(CCN2CCC3(CCc4ccccc43)CC2)c2ccc(Cl)c(Cl)c2)cc1 (centres undefined) | 525 |  |
| CCOc1ccc2nccc([C@@H](O)[C@@H]3C[C@@H]4CCN3C[C@@H]4CC)c2c1 [ETHYLHYDROCUPREINE HYDROCHLORIDE] |  | 112 |

| SMILES | XC50 (Plasmodium falciparum, 3D7) [nM] | XC50 [nM] |
| --- | --- | --- |
| CCc1cc(=O)[nH]c(-n2nc(C)cc2NC(=O)CC(c2ccccc2)c2ccccc2)n1 | 964 |  |
| N#Cc1cncc(-c2nc3c(N4CCC(Cc5ccccc5)CC4)cccc3n2C2CCNC2)c1 (centres undefined) | 987 |  |
| COc1ccc2nccc([C@@H](O)CN3CCC(NC(=O)/C=C/c4ccc(Cl)c(C(F)(F)F)c4)CC3)c2c1 | 290 |  |
| Cc1cccc2nc(-c3ccc(-c4cccc(NC(=O)Nc5ccc(Cl)cc5)c4)s3)[nH]c12 | 517 |  |
| CCOC(=O)c1c(NC(=O)c2ccccc2)sc2c(O)c(CNC3CCCCC3)ccc12 | 752 |  |
| CN1c2ccc([N+](=O)[O-])cc2C(C)(C)C12C=Cc1cc(Br)cc([N+](=O)[O-])c1O2 (centres undefined) | 785 |  |
| NC(=O)c1cnc2cc(-c3ccoc3)ccc2c1Nc1ccc(NC(=O)Nc2ccccc2Cl)cc1 | 538 |  |
| CC[C@H]1CN(Cc2ccco2)CC[C@H]1CCCc1ccnc2ccc(O)cc12 | 1270 |  |
| O=C(/C=C/c1ccc(C(F)(F)F)cc1)N1CCc2cc3nccc(N4CCN5CCC[C@H]5C4)c3cc21 | 1510 |  |
| COc1ccccc1NC(=O)Nc1ccc(-c2cccc(-c3nc4ccccc4[nH]3)c2)cc1 | 641 |  |
| O=C(NCCCCN1CCC(c2ccc3c(c2OCCOCCO)CCCC3)CC1)c1ccc(-c2ccc(C(F)(F)F)cc2)cc1 | 275 |  |
| CCCCCCCN1CC[C@@H](CCCc2ccnc3ccc(OC)cc23)[C@@H](CCN)C1 | 748 |  |
| Cc1cc(-c2cccc(CNC3CCN(C)CC3)c2)ccc1S(=O)(=O)NCc1ccccc1 | 819 |  |
| Cc1ccccc1C1CCN(C2CCC(NC(=O)c3ccc(-c4cccs4)s3)CC2)CC1 (centres undefined) | 1030 |  |
| COc1cc(NC(=O)c2sc(-c3ccc(Cl)cc3)cc2Cl)ccc1OCCN1CCCC1 | 976 |  |
| Cc1cc(NCCc2ccccc2)nc(N/C(=N/CC(=O)OC(C)(C)C)Nc2ccc(C(F)(F)F)cc2)n1 | 335 |  |
| CCOc1cc(C(=O)NCCN(CC)c2cccc(C)c2)ccc1-c1nc2cc(Cl)ccc2[nH]1 | 809 |  |
| CN1CCN(c2ccc(Nc3nccc(-c4c(-c5cccc(NC(=O)c6c(F)cccc6F)c5)nn5ccccc45)n3)cc2)CC1 | 112 |  |
| COc1ccc2nccc([C@@H](O)CN3CCC(NCCOc4cccc(C(F)(F)F)c4Cl)CC3)c2c1 | 154 |  |
| Cc1ccc(Nc2nc(N/N=C/c3cc4c(cc3Br)OCO4)nc(Nc3ccc([N+](=O)[O-])cc3)n2)cc1C | 750 |  |
| CNc1ccc(CNCc2cccc(-c3ccc(-c4nc5ccccc5[nH]4)s3)c2)cc1 | 734 |  |
| Cc1nc(C)n(CC(=O)Nc2cccc(-c3cccc(-c4nc5cc(C(F)(F)F)ccc5[nH]4)c3)c2)n1 | 761 |  |
| CN(CC(=O)Nc1cc(C(F)(F)F)ccc1-n1cncn1)Cc1nc2ccccc2s1 | 1410 |  |
| O=C(/C=C/c1ccc(Cl)cc1)Nc1ccc2nc(CN3CCCC3)ccc2c1 | 82.1 |  |

| SMILES | XC50 (Plasmodium falciparum, 3D7) [nM] | XC50 [nM] |
| --- | --- | --- |
| O=c1cc(NCCNCc2cccc(-c3ccccc3)c2)[nH]c2ccccc12 | 1030 |  |
| Oc1ccc2[nH]c(-c3cccc(F)c3)nc2c1CNCc1ccccc1 | 916 |  |
| COc1ccc(C=Cc2cc(=N)c3ccccc3[nH]2)cc1Br | 713 |  |
| O=C(Nc1cc(Cl)cc(Cl)c1)Nc1ccnc2ccccc12 | 745 |  |
| Cc1[nH]c(C)c(-c2ccc(C#Cc3ccc(F)cc3F)cc2)c(=O)c1Br | 30.1 |  |
| CCOc1cc(CC)ccc1C1CCN(CCCCNC(=O)c2ccc(NC(=O)c3ccc(Cl)cc3)cc2)CC1 | 743 |  |
| CCNC(=O)c1cc(S(=O)(=O)N2CCN(c3ccccn3)CC2)cs1 | 866 |  |
| O=C(Nc1ccc(Cl)cc1)Nc1nc2cc([N+](=O)[O-])ccc2[nH]1 | 801 |  |
| c1ccc2c(c1)ncn2-c1ccnc(Nc2ccncc2)n1 | 646 |  |
| Cn1cnc(-c2ccc3c(c2)CCN(CCC2CCC(NC(=O)/C=C/c4ccc(F)cc4)CC2)CC3)c1 (centres undefined) | 904 |  |
| COc1ccccc1NC(=O)NC1CCN(CCCCCNC(=O)/C=C/c2ccc(Cl)c(Cl)c2)CC1 | 746 |  |
| CCCCCc1cc(OCCN(C)C)cc2c1C(=O)CC(C)(C)O2 | 103 |  |
| COc1ccc2nccc([C@@H](O)CN3CCC(NC[C@H](Cc4ccccc4)NC(=O)OC(C)(C)C)CC3)c2c1 | 228 |  |
| Cc1ccc(Nc2nccc(NCC(O)c3ccc(C(F)(F)F)cc3)n2)cc1 (centres undefined) | 491 |  |
| CC(=O)N1N=C(c2ccccc2)Sc2c1nc(-c1ccc(Cl)cc1)n2C(C)=O | 986 |  |
| O=C(NCc1cccc(C(F)(F)F)c1)C(c1cc2ccccc2o1)N1CCN(C(c2ccccc2)c2ccccc2)CC1 (centres undefined) | 498 |  |
| Cc1cccc2nc(-c3cccc(-c4cccc(NC(=O)NC5CC5c5ccccc5)c4)c3)[nH]c12 (centres undefined) | 705 |  |
| OC(CN1CCN(c2cccc(Cl)c2)CC1)C(c1ccccc1)c1ccccc1 (centres undefined) | 1150 |  |
| O=C(Nc1ccc(Cn2ncc(N3CCCNCC3)c(Cl)c2=O)cc1)Nc1ccc(F)cc1[N+](=O)[O-] | 1100 |  |
| CC(=O)Nc1csc(-c2cnc(/C=C(\C)C[C@@H]3OC[C@H](C[C@@H]4O[C@H]4[C@@H](C)[C@H](C)O)[C@@H](O)[C@H]3O)o2)c1 | 178 |  |
| COc1cc2c(cc1S(=O)(=O)c1ccc(NC(=O)c3cc4ccccc4s3)cc1)CCN(C)CC2 | 837 |  |
| C=C1C(C(=O)OCC)=CN(CC)c2cc(O[C@@H]3CCN(C(=O)OC(C)(C)C)C3)ccc21 | 290 |  |
